From ChEMBL document CHEMBL1806462, “Discovery of pyrrolo[2,1-f][1,2,4]triazine C6-ketones as potent, orally active p38α MAP kinase inhibitors” (Bioorg Med Chem Lett, 2011)

Experiments:
[1] = tested on: Liver microsomes; test: Clearance in human liver microsomes; format: ADME, Microsome
[2] = Cmax in rat at 10 mg/kg, po; format: ADME, organism-based; set-up: dose 10 mg/kg, route oral; settings: in vivo
[3] = Plasma concentration in rat at 10 mg/kg, po after 4 hrs; format: ADME, organism-based; set-up: dose 10 mg/kg, route oral
[4] = tested on: Rattus norvegicus; test: AUC (0 to 4 hrs) in rat at 10 mg/kg, po; format: ADME, organism-based, Plasma; set-up: time < 4 hr, dose 10 mg/kg, route oral; settings: in vivo

CL [1] [nmol/min/mg]	Cmax [2] [ng/mL]	concentration at 4 h [3] [ng/mL]	AUC [4] [ng·h/mL]	SMILES
0.16				COC(=O)NC(=O)c1ccc(C)c(Nc2ncnn3cc(C(=O)c4ccccc4)c(C)c23)c1
0.08	752	550	2300	Cc1ccc(C(=O)NC2CC2)cc1Nc1ncnn2cc(C(=O)c3ccccc3)c(C)c12
